Source: ChEMBL document CHEMBL1201862, “PubChem BioAssay data set” (2004)
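Step 1: Grow cells in 96-well plates. Step 2: Expose to compound for 48 hours at 5 concentrations. Step 3: Interpolate endpoints linearly; if unreached, use highest concentration. The concentration for 50% growth inhibition is given as GI50.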 Active and inactive are the calls of the source. Rule as the data show it: active = GI50 up to about 1.1 µM and inactive = higher.

Assays:
Experiment in all cases: NCI tumour cell line growth inhibition, 48 h
[1] = test system: HOP-62
[2] = test system: KM12
[3] = test system: CCRF-CEM
[4] = test system: SK-MEL-5
[5] = test system: NCI/ADR-RES
[6] = test system: SK-MEL-2
[7] = test system: HT-29
[8] = test system: SW-620
[9] = test system: COLO 205
[10] = test system: LOX IMVI
[11] = test system: OVCAR-3
[12] = test system: T47D
[13] = test system: SF-539
[14] = test system: UACC-62
[15] = test system: A498
[16] = test system: UO-31
[17] = test system: NCI-H23
[18] = test system: OVCAR-5
[19] = test system: MCF7
[20] = test system: NCI-H226

Measured: GI50

OC(CCNCc1ccccc1)c1ccc2ccccc2c1 (stereo not given)
inactive: [1] 19.3 µM | [2] 17 µM | [3] 1.68 µM | [4] 17.2 µM | [5] 24.7 µM | [6] 20.5 µM | [7] 22.9 µM | [8] 19.7 µM | [9] 20.7 µM | [10] 13.5 µM | [11] 13.3 µM | [12] 24 µM | [13] 16.9 µM | [14] 19.3 µM | [15] 19.4 µM | [16] 16 µM | [17] 30 µM | [18] 30.7 µM | [19] 24.9 µM | [20] 23.8 µM

NS(=O)(=O)c1ccc(NC(=O)c2ccc3nc4ccccc4c(Nc4ccc(S(N)(=O)=O)cc4)c3c2)cc1
inactive: [1] > 100 µM | [2] 12.1 µM | [3] > 100 µM | [4] > 100 µM | [5] > 100 µM | [6] > 100 µM | [7] > 100 µM | [8] > 100 µM | [9] > 100 µM | [10] > 100 µM | [11] > 100 µM | [12] > 100 µM | [13] > 100 µM | [14] > 100 µM | [15] > 100 µM | [16] > 100 µM | [17] > 100 µM | [18] > 100 µM | [19] > 100 µM | [20] > 100 µM

COP(=O)(OC)C1=c2c(C)noc2=C2C=COC2C1=O (stereo not given)
inactive: [1] > 100 µM | [2] > 100 µM | [3] > 100 µM | [4] > 100 µM | [5] > 100 µM | [6] > 100 µM | [7] > 100 µM | [8] > 100 µM | [9] > 100 µM | [10] > 100 µM | [11] > 100 µM | [12] > 10 µM | [13] > 100 µM | [14] > 100 µM | [15] > 100 µM | [16] > 100 µM | [17] > 100 µM | [18] > 100 µM | [19] > 100 µM | [20] > 100 µM
